In patent US20240182456A1, “2-((4-((S)-2-(4-CHLORO-2-FLUOROPHENYL)-2-METHYLBENZO[D][1,3]DIOXOL-4-YL)PIPERIDIN-1-YL)METHYL)-1-(((S)-OXETAN-2-YL)METHYL)-1H-IMIDAZOLE DERIVATIVES AS ACTIVATORS OF THE GLP1 RECEPTOR FOR THE TREATMENT OF OBESITY” (Novartis AG, priority 2021, published 2024):

Biological target: human GLP1R (Homo sapiens, UniProt P43220)
Test: Human GLP1R DERET internalization assay
Assay type: cell-based
Settings: HEK293-SNAP-hGLP1R-GloSensor cells; for EC50: mean n=2; for Emax: relative to GLP1(7-36)
Summary of the method: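 HEK293 cells stably expressing SNAP-tagged hGLP1R, labelled with SNAP-Lumi-Tb, then exposed at 37 °C to 3-fold compound dilutions (top 30 μM) with 25 μM fluorescein. Donor/acceptor TR-FRET ratio read every 30 min. EC50 and Emax from 4-parameter fits, normalised to the GLP1(7-36) EC100 (top 1 μM) and buffer-only EC0 wells.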

human GLP1R, sequence (P43220 24-463): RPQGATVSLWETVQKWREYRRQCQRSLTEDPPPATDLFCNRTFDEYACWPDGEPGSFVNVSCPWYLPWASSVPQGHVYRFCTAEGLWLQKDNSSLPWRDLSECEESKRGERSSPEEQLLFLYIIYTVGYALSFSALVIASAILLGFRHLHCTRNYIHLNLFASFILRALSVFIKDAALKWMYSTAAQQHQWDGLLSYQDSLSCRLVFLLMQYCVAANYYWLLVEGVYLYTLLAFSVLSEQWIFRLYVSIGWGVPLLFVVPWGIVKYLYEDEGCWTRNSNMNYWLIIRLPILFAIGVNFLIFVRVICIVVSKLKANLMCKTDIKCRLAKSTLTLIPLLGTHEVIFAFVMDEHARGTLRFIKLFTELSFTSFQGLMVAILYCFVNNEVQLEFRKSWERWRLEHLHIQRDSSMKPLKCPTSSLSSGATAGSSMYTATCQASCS

C[C@]1(c2ccc(Cl)cc2F)Oc2cccc(C3CCN(Cc4nc(C(F)(F)F)c(C(=O)O)n4C[C@@H]4CCO4)CC3)c2O1 [Compound C-7, 2-((4-((S)-2-(4-chloro-2-fluorophenyl)-2-methylbenzo[d][1,3]dioxol-4-yl)piperidin-1-yl)methyl)-1-(((S)-oxetan-2-yl)methyl)-4-(trifluoromethyl)-1H-imidazole-5-carboxylic acid]
EC50: > 30 µM
Emax: 3%

C[C@]1(c2ccc(Cl)cc2F)Oc2cccc(C3CCN(Cc4nc(/C=C/C(=O)O)cn4C[C@@H]4CCO4)CC3)c2O1 [Compound C-2, (E)-3-(2-((4-((S)-2-(4-chloro-2-fluorophenyl)-2-methylbenzo[d][1,3]dioxol-4-yl)piperidin-1-yl)methyl)-1-(((S)-oxetan-2-yl)methyl)-1H-imidazol-4-yl)acrylic acid]
EC50: > 30 µM
Emax: 5%

Cc1nc(CN2CCC(c3cccc4c3O[C@@](C)(c3ccc(Cl)cc3F)O4)CC2)n(C[C@@H]2CCO2)c1/C=C/C(=O)O [Compound C-5, (E)-3-(2-((4-((S)-2-(4-chloro-2-fluorophenyl)-2-methylbenzo[d][1,3]dioxol-4-yl)piperidin-1-yl)methyl)-4-methyl-1-(((S)-oxetan-2-yl)methyl)-1H-imidazol-5-yl)acrylic acid]
EC50: 0.089 µM
Emax: 58%

C[C@]1(c2ccc(Cl)cc2F)Oc2cccc(C3CCN(Cc4ncc(/C=C/C(=O)O)n4C[C@@H]4CCO4)CC3)c2O1 [Compound C-1, (E)-3-(2-((4-((S)-2-(4-chloro-2-fluorophenyl)-2-methylbenzo[d][1,3]dioxol-4-yl)piperidin-1-yl)methyl)-1-(((S)-oxetan-2-yl)methyl)-1H-imidazol-5-yl)acrylic acid]
EC50: 0.336 µM
Emax: 67%
